Laboratory results reported in patent publication US20240270740A1, “INHIBITORS OF CYCLIC GMP-AMP SYNTHASE AND USES THEREOF” (Ventus Therapeutics U.S., Inc., priority 2022, published 2024).

Biological target: T1, hcGAS (Homo sapiens, UniProt Q8N884)
Assay: hcGAS Kinase-Glo assay (ATP depletion)
Assay type: biochemical
Details: 40 nM hcGAS, 100 μM ATP, 100 μM GTP, 25 nM dsDNA, 3 h incubation
Procedure: cGAS catalyzes the cyclization of ATP and GTP to produce cGAMP, which is the activating ligand of STING. Human cGAS (hcGAS) inhibition can thus be quantified by measuring how much cGAMP is formed either indirectly, by monitoring ATP-depletion as in the hcGAS Kinase-Glo assay (as described below), or directly, such as using the hcGAS LCMS assay (as described below).
(i) hcGAS Kinase-Glo Assay
Compounds were tested for their human-cGAS […] inhibition activity using the methodology reported in Lama et al., “Development of human cGAS-specific small molecule inhibitors for repression of dsDNA-triggered interferon expression”, Nature Communications 10, Article number: 2261 (2019), with slight changes to some conditions as shown in Table B.
The results of the assay, expressed in IC50 values, are reported in Table D with the following designations: A represents an IC50 value<0.01 μM; B represents an IC50 value≥0.01 μM and <0.03 μM; C represents an IC50 value≥0.03 μM and <0.1 μM; D represents an IC50 value≥0.1.

T1 sequence (Q8N884 whole entry): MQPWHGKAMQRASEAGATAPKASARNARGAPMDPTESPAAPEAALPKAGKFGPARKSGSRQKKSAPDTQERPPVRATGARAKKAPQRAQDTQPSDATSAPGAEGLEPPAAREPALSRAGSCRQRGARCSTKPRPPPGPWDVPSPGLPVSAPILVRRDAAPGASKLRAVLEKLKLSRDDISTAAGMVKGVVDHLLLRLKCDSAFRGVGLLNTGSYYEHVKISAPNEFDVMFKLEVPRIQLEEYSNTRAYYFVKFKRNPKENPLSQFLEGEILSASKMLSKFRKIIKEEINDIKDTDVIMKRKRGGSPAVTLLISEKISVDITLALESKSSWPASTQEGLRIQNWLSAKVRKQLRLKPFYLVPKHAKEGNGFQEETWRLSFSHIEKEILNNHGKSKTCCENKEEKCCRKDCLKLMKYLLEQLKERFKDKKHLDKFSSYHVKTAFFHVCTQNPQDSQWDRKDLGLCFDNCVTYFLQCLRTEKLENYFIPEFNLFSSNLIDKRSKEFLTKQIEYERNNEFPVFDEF

IC50 | Compound
30 to 100 nM | COc1c(N[C@H]2CCC[C@@H]2O)cc(C(=O)Nc2nnc(-n3nccc3C)s2)oc1=O (racemic) [Rac-15, 4-(((1S,2S)-2-hydroxycyclopentyl)amino)-3-methoxy-N-(5-(5-methyl-1H-pyrazol-1-yl)-1,3,4-thiadiazol-2-yl)-2-oxo-2H-pyran-6-carboxamide]
10 to 30 nM | COc1c(N[C@@H]2CC[C@H]2O)cc(C(=O)Nc2nnc(-n3nccc3C)s2)oc1=O (racemic) [Rac-37, 4-(((1R,2R)-2-hydroxycyclobutyl)amino)-3-methoxy-N-(5-(5-methyl-1H-pyrazol-1-yl)-1,3,4-thiadiazol-2-yl)-2-oxo-2H-pyran-6-carboxamide]
10 to 30 nM | COCC1CCN(c2cc(C(=O)Nc3nnc(-n4nccc4C)s3)oc(=O)c2OC)CC1 [Compound 2, 3-methoxy-4-(4-(methoxymethyl)piperidin-1-yl)-N-(5-(5-methyl-1H-pyrazol-1-yl)-1,3,4-thiadiazol-2-yl)-2-oxo-2H-pyran-6-carboxamide]
30 to 100 nM | COc1c(N[C@H]2C[C@@H](OC)C2)cc(C(=O)Nc2nnc(-n3nccc3C)s2)oc1=O [Compound 9, 3-methoxy-4-(((1,3-cis)-3-methoxycyclobutyl)amino)-N-(5-(5-methyl-1H-pyrazol-1-yl)-1,3,4-thiadiazol-2-yl)-2-oxo-2H-pyran-6-carboxamide]

Biological target: T1, hcGAS
Assay: hcGAS LCMS assay (direct measurement of cGAMP production)
Assay type: biochemical
Details: 0.5 nM hcGAS, 100 μM ATP, 100 μM GTP, 25 nM dsDNA, 4 h incubation
Procedure, shortened: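 Direct LC/MS readout of cGAMP formed: 4-h enzyme–substrate incubation with compound, stopped by acetonitrile/water quench carrying isotope-labelled cGAMP (0.15 mM) as standard. Potency reported as IC50 ranges.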

IC50 | Compound
20 to 60 nM | COc1c(NC23CC(C2)C3)cc(C(=O)Nc2nnc(-n3nccc3N)s2)oc1=O [Compound 178, N-(5-(5-amino-1H-pyrazol-1-yl)-1,3,4-thiadiazol-2-yl)-4-(bicyclo[1.1.1]pentan-1-ylamino)-3-methoxy-2-oxo-2H-pyran-6-carboxamide]
5 to 20 nM | COc1c(NCC2(OC)CC2)cc(C(=O)Nc2nnc(-n3nccc3C)s2)oc1=O [Compound 190]
< 5 nM | COc1c(NC[C@H](C)OC)cc(C(=O)Nc2nnc(-c3c(Cl)ccn3C)s2)oc1=O [Compound 193, (S)-N-(5-(3-chloro-1-methyl-1H-pyrrol-2-yl)-1,3,4-thiadiazol-2-yl)-3-methoxy-4-((2-methoxypropyl)amino)-2-oxo-2H-pyran-6-carboxamide]
5 to 20 nM | COC[C@H]1CCN1c1cc(C(=O)Nc2nnc(-n3nccc3C)s2)oc(=O)c1OC [Compound 194, (R)-3-methoxy-4-(2-(methoxymethyl)azetidin-1-yl)-N-(5-(5-methyl-1H-pyrazol-1-yl)-1,3,4-thiadiazol-2-yl)-2-oxo-2H-pyran-6-carboxamide]
5 to 20 nM | COc1c(NC2COC(C)(C)OC2)cc(C(=O)Nc2nnc(-n3nccc3C)s2)oc1=O [Compound 195, 4-((2,2-dimethyl-1,3-dioxan-5-yl)amino)-3-methoxy-N-(5-(5-methyl-1H-pyrazol-1-yl)-1,3,4-thiadiazol-2-yl)-2-oxo-2H-pyran-6-carboxamide]
5 to 20 nM | COCC1(Nc2cc(C(=O)Nc3nnc(-n4nccc4C)s3)oc(=O)c2OC)CCC1 [Compound 196]
5 to 20 nM | COc1c(N[C@@H]2CCC[C@@H]2O)cc(C(=O)Nc2nnc(-c3c(Cl)ccn3C)s2)oc1=O [Compound 197, N-(5-(3-chloro-1-methyl-1H-pyrrol-2-yl)-1,3,4-thiadiazol-2-yl)-4-(((1R,2S)-2-hydroxycyclopentyl)amino)-3-methoxy-2-oxo-2H-pyran-6-carboxamide]
< 5 nM | COCCOc1c(N[C@@H](COC)c2ccccc2)cc(C(=O)Nc2nnc(-n3nccc3C)s2)oc1=O [Compound 200, (R)-4-((2-Methoxy-1-phenylethyl)amino)-3-(2-methoxyethoxy)-N-(5-(5-methyl-1H-pyrazol-1-yl)-1,3,4-thiadiazol-2-yl)-2-oxo-2H-pyran-6-carboxamide]
< 5 nM | COCCOc1c(N[C@@H](COC)c2ccccc2)cc(C(=O)Nc2nnc(-c3c(Cl)ccn3C)s2)oc1=O [Compound 201, (R)—N-(5-(3-chloro-1-methyl-1H-pyrrol-2-yl)-1,3,4-thiadiazol-2-yl)-4-((2-methoxy-1-phenylethyl)amino)-3-(2-methoxyethoxy)-2-oxo-2H-pyran-6-carboxamide]
5 to 20 nM | COc1c(N[C@@H]2CCCC[C@H]2OC)cc(C(=O)Nc2nnc(-n3nccc3C)s2)oc1=O [Compound 202, 3-methoxy-4-(((1R,2R)-2-methoxycyclohexyl)amino)-N-(5-(5-methyl-1H-pyrazol-1-yl)-1,3,4-thiadiazol-2-yl)-2-oxo-2H-pyran-6-carboxamide]
5 to 20 nM | COCCNc1cc(C(=O)Nc2nnc(-n3nccc3N)s2)oc(=O)c1OC [Compound 205, N-(5-(5-amino-1H-pyrazol-1-yl)-1,3,4-thiadiazol-2-yl)-3-methoxy-4-((2-methoxyethyl)amino)-2-oxo-2H-pyran-6-carboxamide]
5 to 20 nM | COc1c(N[C@H]2CCC[C@H]2OCC(F)F)cc(C(=O)Nc2nnc(-n3nccc3C)s2)oc1=O [Compound 206, 4-(((1S,2R)-2-(2,2-difluoroethoxy)cyclopentyl)amino)-3-methoxy-N-(5-(5-methyl-1H-pyrazol-1-yl)-1,3,4-thiadiazol-2-yl)-2-oxo-2H-pyran-6-carboxamide]
20 to 60 nM | COc1c(N[C@@H](C)[C@@H](C)OC)cc(C(=O)Nc2nnc(-n3nccc3C)s2)oc1=O [Compound 207, 3-methoxy-4-(((2S,3R)-3-methoxybutan-2-yl)amino)-N-(5-(5-methyl-1H-pyrazol-1-yl)-1,3,4-thiadiazol-2-yl)-2-oxo-2H-pyran-6-carboxamide]
5 to 20 nM | COc1c(NCCOC(F)F)cc(C(=O)Nc2nnc(-n3nccc3C)s2)oc1=O [Compound 208, 4-((2-(difluoromethoxy)ethyl)amino)-3-methoxy-N-(5-(5-methyl-1H-pyrazol-1-yl)-1,3,4-thiadiazol-2-yl)-2-oxo-2H-pyran-6-carboxamide]
5 to 20 nM | COCCOc1c(NC23CC(C2)C3)cc(C(=O)Nc2nnc(-n3nccc3N)s2)oc1=O [Compound 210, N-(5-(5-amino-1H-pyrazol-1-yl)-1,3,4-thiadiazol-2-yl)-4-(bicyclo[1.1.1]pentan-1-ylamino)-3-(2-methoxyethoxy)-2-oxo-2H-pyran-6-carboxamide]
5 to 20 nM | COC[C@H]1[C@H](OC)CCN1c1cc(C(=O)Nc2nnc(-n3nccc3C)s2)oc(=O)c1OC [Compound 211, 3-methoxy-4-((2S,3R)-3-methoxy-2-(methoxymethyl)pyrrolidin-1-yl)-N-(5-(5-methyl-1H-pyrazol-1-yl)-1,3,4-thiadiazol-2-yl)-2-oxo-2H-pyran-6-carboxamide]
5 to 20 nM | COc1c(N[C@H]2CCC[C@H]2OC(F)F)cc(C(=O)Nc2nnc(-n3nccc3C)s2)oc1=O [Compound 212, 4-(((1S,2R)-2-(difluoromethoxy)cyclopentyl)amino)-3-methoxy-N-(5-(5-methyl-1H-pyrazol-1-yl)-1,3,4-thiadiazol-2-yl)-2-oxo-2H-pyran-6-carboxamide]
< 5 nM | COC[C@H](Nc1cc(C(=O)Nc2nnc(-c3c(Cl)ccn3C)s2)oc(=O)c1OC)c1ccccc1 [Compound 213, (R)-N-(5-(3-chloro-1-methyl-1H-pyrrol-2-yl)-1,3,4-thiadiazol-2-yl)-3-methoxy-4-((2-methoxy-1-phenylethyl)amino)-2-oxo-2H-pyran-6-carboxamide]
5 to 20 nM | Cc1ccnn1-c1nnc(NC(=O)c2cc3c(c(=O)o2)OCCN3[C@@H]2CCC[C@@H]2C#N)s1 [Compound 223, 1-((1R,2S)-2-cyanocyclopentyl)-N-(5-(5-methyl-1H-pyrazol-1-yl)-1,3,4-thiadiazol-2-yl)-5-oxo-1,2,3,5-tetrahydropyrano[3,4-b][1,4]oxazine-7-carboxamide]
< 5 nM | Cc1ccnn1-c1nnc(NC(=O)c2cc3c(c(=O)o2)OCCN3[C@H]2CCC[C@H]2C#N)s1 [Compound 224, 1-((1S,2R)-2-cyanocyclopentyl)-N-(5-(5-methyl-1H-pyrazol-1-yl)-1,3,4-thiadiazol-2-yl)-5-oxo-1,2,3,5-tetrahydropyrano[3,4-b][1,4]oxazine-7-carboxamide]
< 5 nM | COC[C@@H](C1CC1)N1CCOc2c1cc(C(=O)Nc1nnc(-n3nccc3C)s1)oc2=O [Compound 225, (R)-1-(1-cyclopropyl-2-methoxyethyl)-N-(5-(5-methyl-1H-pyrazol-1-yl)-1,3,4-thiadiazol-2-yl)-5-oxo-1,2,3,5-tetrahydropyrano[3,4-b][1,4]oxazine-7-carboxamide]
< 5 nM | COC[C@H](C1CC1)N1CCOc2c1cc(C(=O)Nc1nnc(-n3nccc3C)s1)oc2=O [Compound 226, (S)-1-(1-cyclopropyl-2-methoxyethyl)-N-(5-(5-methyl-1H-pyrazol-1-yl)-1,3,4-thiadiazol-2-yl)-5-oxo-1,2,3,5-tetrahydropyrano[3,4-b][1,4]oxazine-7-carboxamide]
< 5 nM | COC[C@@H](c1ccccc1)N1CCOc2c1cc(C(=O)Nc1nnc(-n3nccc3C)s1)oc2=O [Compound 227, (R)-1-(2-methoxy-1-phenylethyl)-N-(5-(5-methyl-1H-pyrazol-1-yl)-1,3,4-thiadiazol-2-yl)-5-oxo-1,2,3,5-tetrahydropyrano[3,4-b][1,4]oxazine-7-carboxamide]
